Reference: patent US8569318B2, “Tetrahydro-pyrazolo[1,5-a]pyrido-pyrimidines as antagonists of serotonin 5-HT6 receptors, methods for the production and use thereof” (priority 2008, dated 2013)
pIC50, pKi: −log10 of the molar value. Structures can show the parent of a compound that is named as a salt.

Columns and labels:
[1] = molecular target: recombinant human 5-HT6 receptors (Homo sapiens (Human), UniProt P50406); assay: Competitive radioligand binding ([3H] Lysergic acid diethylamide) to serotonin 5-HT6 receptors, HeLa cell membranes; conditions: for pIC50: 1.5 nM [3H] Lysergic acid diethylamide, 120 min at 37° C.
recombinant human 5-HT6 receptors, sequence (P50406 whole entry): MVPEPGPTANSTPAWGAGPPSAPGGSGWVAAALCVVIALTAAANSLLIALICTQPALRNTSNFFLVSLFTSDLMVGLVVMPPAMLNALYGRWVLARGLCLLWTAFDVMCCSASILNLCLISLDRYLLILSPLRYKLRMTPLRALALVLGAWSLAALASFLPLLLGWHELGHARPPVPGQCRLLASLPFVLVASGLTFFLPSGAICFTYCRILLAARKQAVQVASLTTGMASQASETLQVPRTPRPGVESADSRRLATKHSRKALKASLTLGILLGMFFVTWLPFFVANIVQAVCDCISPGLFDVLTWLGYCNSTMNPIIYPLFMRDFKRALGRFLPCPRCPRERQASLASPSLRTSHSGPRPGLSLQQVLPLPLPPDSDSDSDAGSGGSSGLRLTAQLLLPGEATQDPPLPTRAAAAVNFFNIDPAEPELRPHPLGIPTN
Experimental: Screening of the disclosed compounds for their potential ability to interact with serotonin 5-HT6 receptors was carried out by the method of radioligand binding. For this purpose membrane species were prepared from HeLa cells expressing recombinant human 5-HT6 receptors, by means of cells homogenization in glass homogenizer with subsequent separation of plasmatic membranes from cell nucli, mitochondria's and cell wreckages by differential centrifugation. Determination of tested compounds binding to 5-HT6 receptors was carried out according to the method described in [Monsma F J Jr, Shen Y, Ward R P, Hamblin M W and Sibley D R, Cloning and expression of a novel serotonin receptor with high affinity for tricyclic psychotropic drugs. Mol. Pharmacol. 43:320-327, 1993]. […] After the incubation the samples were filtered in vacuo on glass-microfiber filters G/F (Millipor, USA), filters were washed three times with cold solution of the medium and radioactivity was measured by scintillation counter MicroBeta 340 (PerkinElmer, USA). […] Methiothepin was used as a positive control. Binding of the tested compounds with the receptor was determined by their ability to displace the radioligand and was expressed in percent of displacement. The percent of displacement was calculated according to the following equation:
[formula] wherein: TA—was overall radioactivity in the presence of radioligand only, CA—was radioactivity in the presence of radioligand and tested compound and NA—was radioactivity in the presence of radioligand and Serotonin (5 μM).

[2] = system: mice; assay: Passive Avoidance of mice in the Shuttle Chamber, memory disturbed by MK-801; format: in vivo; conditions: MK-801 0.1 mg/kg, injected 30 minutes before training

| SMILES | pIC50 [1] | nootropic effect (enhancement of memory disturbed by MK-801) [2] | pKi ([1]; Ki=IC50/(1+[L]/KD)) |
| --- | --- | --- | --- |
| Cc1nn2c3c(cnc2c1S(=O)(=O)c1ccccc1)CNCC3 [1.1(1)] | 8.34 | – | – |
| Cc1nn2c3c(cnc2c1S(=O)(=O)c1ccccc1)CN(C)CC3 [1.1(3).HCl] | – | ability of active ingredient 1.1(3).HCl to produce nootropic effect | – |
| CSc1nn2cc3c(nc2c1S(=O)(=O)c1ccccc1)CCN(C)C3 [2.2(2)] | 6.10 | – | 6.43 |
| CSc1nn2cc3c(nc2c1S(=O)(=O)c1ccc(F)cc1)CCN(C)C3 [2.2(3)] | < 6.00 | – | – |
